Common to all, as to assay: NCI-60 cell line screen, 48 h
In experiment [1] the test system is UACC-257 melanoma.
Experiment [2] relates to HS 578T breast.
Experiment [3] deals with BT-549 breast.
The test system of experiment [4] is CAKI-1 renal.
The subject of experiment [5] is HT29 colon.
Experiment [6] concerns HOP-92 NSCLC.
Experiment [7] concerns PC-3 prostate.
Experiment [8] deals with SF-539 CNS.
In experiment [9] the test system is SF-295 CNS.
Experiment [10] has as its system SNB-19 CNS.

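Growth conditions: 96-well plates. Treatment: test compound, 48 hours, 5 concentrations. Analysis: linear interpolation between bracketing concentrations; unreached endpoints set to highest concentration. GI50 marks 50% less growth. Definition used: TGI = concentration required for complete inhibition of growth.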

Regarding `COc1cc(/C=C2\CN(C(=O)CCN3CCC(=NO)CC3)C/C(=C\c3cc(OC)c(OC)c(OC)c3)C2=O)cc(OC)c1OC`, the GI50 in experiment [1] is 510 nM; in [2], 441 nM; in experiment [3] it was 332 nM; in experiment [4], 837 nM; in experiment [5] it was 369 nM; in [6] it was 676 nM. For the same molecule, the GI50 in [7] is 298 nM; in experiment [8], 277 nM; in experiment [9], 656 nM; in experiment [10], 452 nM. Further, the TGI stood at 2440 nM in experiment [1]; 13500 nM in [2]; 1230 nM in [3]; 2340 nM in experiment [4]; 1510 nM in experiment [5]; 2040 nM in experiment [6]. In addition, the TGI was 1120 nM in [7], 928 nM in experiment [8], 1670 nM in experiment [9] and 1580 nM in [10].

Consider `Cn1cc(C2=C(c3cn(C)c4cc(N)ccc34)C(=O)NC2=O)c2ccccc21`, for which the GI50 is 5890 nM in [1]; 1060 nM in experiment [2]; 4320 nM in experiment [3]; 1390 nM in experiment [4]; 1070 nM in [5]; 5860 nM in experiment [6]. The GI50 is 2920 nM in [7], 568 nM in experiment [8], 909 nM in [9] and 5450 nM in [10]. Also, the TGI in experiment [1] was 18100 nM; in experiment [2] it was more than 19600 nM; in experiment [3] it was 14600 nM; in experiment [4], more than 15000 nM; in experiment [5], 6800 nM; in experiment [6], more than 18900 nM. Besides, the TGI in experiment [7] was more than 20600 nM; in experiment [8], 2270 nM; in [9] it was more than 25000 nM; in [10], 24300 nM.
